Where two headings read alike, the source gives them in different places.
Experiments:
[1] = target: T1, Ba/F3-KIF5B-RET-G810R cells (Homo sapiens, UniProt P07949, G810R, cells depend on it); experiment: Ba/F3-KIF5B-RET-G810R Cell Proliferation Assay (CellTiter-Glo); assay type: cell-based; details: growth inhibition, 72 hours; Table 3
T1 construct: fused on or other part: P33176 (Kinesin-1 heavy chain)
Protocol: (§1) Compounds disclosed herein were tested for the inhibition of RET by a cancer cell proliferation assay commonly known as CellTiter-Glo assay. In this assay, a complete media was prepared by adding 10% fetal bovine serum to RPMI-1640 medium (Life technology) for RET-driven cancer cells (BAF3-FIF5B-RET, Ba/F3-KIF5B-RET-G810R, Ba/F3-TEL-RET-M918T or Ba/F3-KIF5B-RET-V804M). Individual RET-driven type of cells were added to each of 88 wells of a 96 well plate at a seeding density of 2,000 cells/well/95 μL. The cells were allowed to attach to the plate by incubating at 37° C. for 24 hours. The compound was dissolved in DMSO (SIGMA). A solution of test compound was prepared in complete media by serial dilution to obtain the following concentrations: 20 μM, 6.67 μM, 2.22 μM, 0.74 μM, 0.25 μM, 0.082 μM, 0.027 μM, 0.0091 μM and 0.0030 μM. The test compound solution (5 μL) was added to each of 80 cell-containing wells. The final concentrations of the compound were following: 1 μM, 0.33 μM, 0.11 μM, 0.037 μM, 0.012 μM, 0.0041 μM, 0.0014 μM, 0.00046 μM and 0.00015 μM. The final concentration of DMSO is 0.1%. To the 8 remaining cell-containing wells, only complete media (containing 0.1% DMSO) was added to form a control group in order to measure maximal proliferation. To the remaining 8 empty wells, complete media was added to for a vehicle control group in order to measure background. The plates were incubated at 37° C. for 72 hours. 50 μl of CellTiter-Glo® Reagent was added to each well. Mix contents for 2 minutes on an orbital shaker to induce cell lysis. Incubate at room temperature for 10 minutes to stabilize luminescent signal. Record luminescence on Paradigm. Cell viability (CV %) was calculated relative to vehicle (DMSO) treated control wells. The IC50 was calculated using GraphPad Prism.

[2] = target: T2, BAF3-KIF5B-RET cells (Homo sapiens, UniProt P07949); experiment: BAF3-KIF5B-RET Cell Proliferation Assay (CellTiter-Glo); assay type: cell-based; details: growth inhibition, 72 hours
T2 construct: fused on or other part: P33176 (Kinesin-1 heavy chain)
How it was run: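 Ba/F3 cells driven by KIF5B-RET (wild-type, V804M or G810R) or TEL-RET-M918T, 2,000 per well in RPMI/10% FBS, attached 24 h. Treated 72 h at 37° C with compound from 0.00015 to 1 μM final, 0.1% DMSO. CellTiter-Glo luminescence relative to DMSO wells gave IC50.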

[3] = target: BA/F3-KIF5B-RET M918T cells (Homo sapiens, UniProt P07949, M918T, cells depend on it, form not given); experiment: Ba/F3 RET-M918T Cell Proliferation Assay (CellTiter-Glo); assay type: cell-based; details: growth inhibition, 72 hours; Table 3
Protocol: as §1

[4] = target: T3, Ba/F3-KIF5B-RET-V804M cells (Homo sapiens, UniProt P07949, V804M, cells depend on it); experiment: Ba/F3-KIF5B-RET-V804M Cell Proliferation Assay (CellTiter-Glo); assay type: cell-based; details: growth inhibition, 72 hours; Table 3; read-out: BZ/F3-KIF5B-RET V804M
T3 construct: fused on or other part: P33176 (Kinesin-1 heavy chain)
Protocol: as §1

[5] = target: T4, human RET kinase (Homo sapiens, UniProt P07949); experiment: RET Kinase Assay (mobility shift assay, ATP at Km); assay type: biochemical; details: 23 μM ATP (Km), read-out: RET Enzymatic Activity
T4 construct: purchased Carna 08-159
Protocol: Compounds were tested by Mobility shift assay with ATP concentration at Km. The assay used human RET kinase (Carna 08-159). Test compounds were prepared and diluted in DMSO in 3-fold serial dilutions to 50× of the final testing concentrations. The compounds were then further diluted to 5× by the kinase reaction buffer (50 mM HEPES pH 7.5, 0.0015% Brij-35). The enzymatic reaction for compound testing was performed in a white 384-well polypropylene plate (Corning 3573) with a total reaction volume of 25 μl containing 7 nM RET, 3 μM peptide substrate FAM-P2 (GL Biochem 112394), and 23 μM ATP (Sigma A7699-1G). The assay started with loading RET diluted in kinase reaction buffer to wells, followed by addition of equal volume of 5× compounds for 15-min incubation at the room temperature for pre-treatment. The enzymatic reaction was initiated by addition of mixture of the substrate and ATP prepared in kinase reaction buffer. After incubation at 28° C. for one hour, 25 μl of stopper buffer (a mixture of 100 mM HEPES pH 7.5 buffer, 0.015% Brij-35, 50 mM EDTA and 0.2% of coating reagent 3 (Cliper Lifesciences)). After 30 minutes of incubation at room temperature, the plate was read in a Caliper. Percent of control was calculated as the percentage of compound-treated vs 2% DMSO vehicle-treated. The dose-response curves were generated and the IC50 values were calculated by nonlinear sigmoid curve fitting using XLFit.

[6] = system: BAF3 cells; experiment: BAF3 Cell Proliferation Assay (CellTiter-Glo, without RET driven, IL-3); assay type: cell-based; details: Mus musculus; growth inhibition in BAF3 cells, 72 hours, with IL-3; read-out: BAF3 Cellular Activity
How it was run: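 BAF3 cells in RPMI-1640 with 10% FBS and 1 ng/ml IL-3, seeded 2,000/well and settled 24 h at 37 °C, then exposed to compound at final 10 μM down to 0.0015 μM (0.1% DMSO) for 72 h. Viability by CellTiter-Glo luminescence versus DMSO controls; IC50 from curve fit.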

[7] = target: T5, human Aurora B kinase (Homo sapiens, UniProt Q96GD4); experiment: Aurora B Kinase Assay (mobility shift assay, ATP at Km); assay type: biochemical; details: 15 μM ATP (Km), read-out: AurB Enzymatic Activity
T5 construct: purchased Carna 05-102
Protocol: Compounds were tested by Mobility shift assay with ATP concentration at Km. The assay used human Aurora B kinase (Carna 05-102). Test compounds were prepared and diluted in DMSO in 3-fold serial dilutions to 50× of the final testing concentrations. The compounds were then further diluted to 5× by the kinase reaction buffer (50 mM HEPES pH 7.5, 0.0015% Brij-35). The enzymatic reaction for compound testing was performed in a white 384-well polypropylene plate (Corning 3573) with a total reaction volume of 25 μl containing 9 nM Aurora B, 3 μM peptide substrate FAM-P21 (GL Biochem 116370), and 15 μM ATP (Sigma A7699-1G). The assay started with loading Aurora B diluted in kinase reaction buffer to wells, followed by addition of equal volume of 5× compounds for 15-min incubation at the room temperature for pre-treatment. The enzymatic reaction was initiated by addition of mixture of the substrate and ATP prepared in kinase reaction buffer. After incubation at 28° C. for one hour, 25 μl of stopper buffer (a mixture of 100 mM HEPES pH 7.5 buffer, 0.015% Brij-35, 50 mM EDTA and 0.2% of coating reagent 3 (Cliper Lifesciences)). After 30 minutes of incubation at room temperature, the plate was read in a Caliper. Percent of control was calculated as the percentage of compound-treated vs 2% DMSO vehicle-treated. The dose-response curves were generated and the IC50 values were calculated by nonlinear sigmoid curve fitting using XLFit.

[8] = target: T6, human KDR kinase (Homo sapiens, UniProt P35968); experiment: KDR Kinase Assay (mobility shift assay, ATP at Km); assay type: biochemical; details: 92 μM ATP (Km), read-out: KDR Enzymatic Activity
T6 construct: purchased Carna 08-191
Protocol: Compounds were tested by Mobility shift assay with ATP concentration at Km. The assay used human KDR kinase (Carna 08-191). Test compounds were prepared and diluted in DMSO in 3-fold serial dilutions to 50× of the final testing concentrations. The compounds were then further diluted to 5× by the kinase reaction buffer (50 mM HEPES pH 7.5, 0.0015% Brij-35). The enzymatic reaction for compound testing was performed in a white 384-well polypropylene plate (Corning 3573) with a total reaction volume of 25 μl containing 1.2 nM KDR, 3 μM peptide substrate FAM-P22 (GL Biochem 112393), and 92 μM ATP (Sigma A7699-1G). The assay started with loading RET diluted in kinase reaction buffer to wells, followed by addition of equal volume of 5× compounds for 15-min incubation at the room temperature for pre-treatment. The enzymatic reaction was initiated by addition of mixture of the substrate and ATP prepared in kinase reaction buffer. After incubation at 28° C. for one hour, 25 μl of stopper buffer (a mixture of 100 mM HEPES pH 7.5 buffer, 0.015% Brij-35, 50 mM EDTA and 0.2% of coating reagent 3 (Cliper Lifesciences)). After 30 minutes of incubation at room temperature, the plate was read in a Caliper. Percent of control was calculated as the percentage of compound-treated vs 2% DMSO vehicle-treated. The dose-response curves were generated and the IC50s were calculated by nonlinear sigmoid curve fitting using XLFit.

[9] = Table 2, read-out: BA/F3-KIF5B-RET Cellular activity
[10] = Table 3, read-out: BA/F3-KIF5B-RET

T3 sequence (P07949 whole entry V804M, the tested form may be a part): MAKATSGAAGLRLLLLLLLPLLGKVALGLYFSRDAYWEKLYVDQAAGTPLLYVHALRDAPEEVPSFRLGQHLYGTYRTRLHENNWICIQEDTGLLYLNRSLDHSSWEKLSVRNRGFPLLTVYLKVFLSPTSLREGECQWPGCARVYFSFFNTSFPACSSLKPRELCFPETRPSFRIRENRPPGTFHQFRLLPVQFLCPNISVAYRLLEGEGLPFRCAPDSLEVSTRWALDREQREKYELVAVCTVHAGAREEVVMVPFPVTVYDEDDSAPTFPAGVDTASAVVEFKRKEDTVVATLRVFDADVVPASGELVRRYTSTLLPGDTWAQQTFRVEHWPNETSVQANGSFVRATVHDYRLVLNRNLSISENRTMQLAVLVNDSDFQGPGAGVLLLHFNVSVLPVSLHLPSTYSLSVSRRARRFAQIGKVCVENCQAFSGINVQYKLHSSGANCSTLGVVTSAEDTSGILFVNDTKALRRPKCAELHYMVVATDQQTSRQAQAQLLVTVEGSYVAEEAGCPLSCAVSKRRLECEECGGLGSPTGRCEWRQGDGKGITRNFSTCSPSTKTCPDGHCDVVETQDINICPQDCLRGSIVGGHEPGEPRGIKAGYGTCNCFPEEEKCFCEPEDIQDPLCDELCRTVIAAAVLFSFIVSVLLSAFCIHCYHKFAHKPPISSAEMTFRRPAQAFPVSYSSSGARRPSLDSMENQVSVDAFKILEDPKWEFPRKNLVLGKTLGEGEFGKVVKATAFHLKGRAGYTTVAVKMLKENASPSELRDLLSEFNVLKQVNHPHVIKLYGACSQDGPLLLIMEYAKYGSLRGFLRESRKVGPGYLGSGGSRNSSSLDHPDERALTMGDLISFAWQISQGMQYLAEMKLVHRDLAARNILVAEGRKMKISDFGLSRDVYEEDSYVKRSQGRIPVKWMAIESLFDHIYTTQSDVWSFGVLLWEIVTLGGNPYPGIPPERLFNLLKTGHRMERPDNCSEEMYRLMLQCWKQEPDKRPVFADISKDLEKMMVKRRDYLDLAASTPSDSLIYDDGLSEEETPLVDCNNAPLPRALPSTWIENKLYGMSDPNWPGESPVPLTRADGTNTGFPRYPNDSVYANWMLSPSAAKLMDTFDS
Chain of BA/F3-KIF5B-RET M918T cells (P07949 whole entry M918T, form open): as the sequence (P07949 whole entry V804M, the tested form may be a part) above, with M804V, M918T counted along it
T2 sequence (P07949 whole entry, change not shown, the tested form may be a part): as the sequence (P07949 whole entry V804M, the tested form may be a part) above, with M804V counted along it
T1 sequence (P07949 whole entry G810R, the tested form may be a part): as the sequence (P07949 whole entry V804M, the tested form may be a part) above, with M804V, G810R counted along it
T4 sequence (P07949 29-1114): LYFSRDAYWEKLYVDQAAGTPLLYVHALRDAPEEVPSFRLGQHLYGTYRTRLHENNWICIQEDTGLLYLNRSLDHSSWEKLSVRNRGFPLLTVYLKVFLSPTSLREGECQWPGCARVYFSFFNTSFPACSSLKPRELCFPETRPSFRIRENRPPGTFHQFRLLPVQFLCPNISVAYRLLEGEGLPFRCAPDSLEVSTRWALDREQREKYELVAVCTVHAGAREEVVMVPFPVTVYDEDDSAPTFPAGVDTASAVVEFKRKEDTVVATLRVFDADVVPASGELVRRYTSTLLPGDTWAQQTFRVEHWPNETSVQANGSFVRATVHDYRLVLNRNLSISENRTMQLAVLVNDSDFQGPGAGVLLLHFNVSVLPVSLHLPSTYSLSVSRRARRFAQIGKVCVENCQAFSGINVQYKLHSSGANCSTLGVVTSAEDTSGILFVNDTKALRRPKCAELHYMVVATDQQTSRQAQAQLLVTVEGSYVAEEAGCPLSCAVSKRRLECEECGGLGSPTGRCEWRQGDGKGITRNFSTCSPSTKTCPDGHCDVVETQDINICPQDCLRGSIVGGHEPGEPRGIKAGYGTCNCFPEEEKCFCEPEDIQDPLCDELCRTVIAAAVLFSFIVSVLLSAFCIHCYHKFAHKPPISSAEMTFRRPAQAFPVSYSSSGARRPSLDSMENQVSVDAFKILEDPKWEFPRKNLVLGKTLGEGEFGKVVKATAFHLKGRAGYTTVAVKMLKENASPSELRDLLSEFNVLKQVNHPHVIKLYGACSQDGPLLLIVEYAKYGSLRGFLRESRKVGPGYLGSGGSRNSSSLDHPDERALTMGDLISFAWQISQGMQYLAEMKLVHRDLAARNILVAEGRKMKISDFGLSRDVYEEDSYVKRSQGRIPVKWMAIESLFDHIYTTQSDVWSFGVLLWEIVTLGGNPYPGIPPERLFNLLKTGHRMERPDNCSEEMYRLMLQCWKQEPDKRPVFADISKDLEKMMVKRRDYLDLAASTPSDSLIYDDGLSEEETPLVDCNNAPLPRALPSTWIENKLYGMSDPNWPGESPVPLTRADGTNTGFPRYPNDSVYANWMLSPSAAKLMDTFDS
T6 sequence (P35968 20-1356): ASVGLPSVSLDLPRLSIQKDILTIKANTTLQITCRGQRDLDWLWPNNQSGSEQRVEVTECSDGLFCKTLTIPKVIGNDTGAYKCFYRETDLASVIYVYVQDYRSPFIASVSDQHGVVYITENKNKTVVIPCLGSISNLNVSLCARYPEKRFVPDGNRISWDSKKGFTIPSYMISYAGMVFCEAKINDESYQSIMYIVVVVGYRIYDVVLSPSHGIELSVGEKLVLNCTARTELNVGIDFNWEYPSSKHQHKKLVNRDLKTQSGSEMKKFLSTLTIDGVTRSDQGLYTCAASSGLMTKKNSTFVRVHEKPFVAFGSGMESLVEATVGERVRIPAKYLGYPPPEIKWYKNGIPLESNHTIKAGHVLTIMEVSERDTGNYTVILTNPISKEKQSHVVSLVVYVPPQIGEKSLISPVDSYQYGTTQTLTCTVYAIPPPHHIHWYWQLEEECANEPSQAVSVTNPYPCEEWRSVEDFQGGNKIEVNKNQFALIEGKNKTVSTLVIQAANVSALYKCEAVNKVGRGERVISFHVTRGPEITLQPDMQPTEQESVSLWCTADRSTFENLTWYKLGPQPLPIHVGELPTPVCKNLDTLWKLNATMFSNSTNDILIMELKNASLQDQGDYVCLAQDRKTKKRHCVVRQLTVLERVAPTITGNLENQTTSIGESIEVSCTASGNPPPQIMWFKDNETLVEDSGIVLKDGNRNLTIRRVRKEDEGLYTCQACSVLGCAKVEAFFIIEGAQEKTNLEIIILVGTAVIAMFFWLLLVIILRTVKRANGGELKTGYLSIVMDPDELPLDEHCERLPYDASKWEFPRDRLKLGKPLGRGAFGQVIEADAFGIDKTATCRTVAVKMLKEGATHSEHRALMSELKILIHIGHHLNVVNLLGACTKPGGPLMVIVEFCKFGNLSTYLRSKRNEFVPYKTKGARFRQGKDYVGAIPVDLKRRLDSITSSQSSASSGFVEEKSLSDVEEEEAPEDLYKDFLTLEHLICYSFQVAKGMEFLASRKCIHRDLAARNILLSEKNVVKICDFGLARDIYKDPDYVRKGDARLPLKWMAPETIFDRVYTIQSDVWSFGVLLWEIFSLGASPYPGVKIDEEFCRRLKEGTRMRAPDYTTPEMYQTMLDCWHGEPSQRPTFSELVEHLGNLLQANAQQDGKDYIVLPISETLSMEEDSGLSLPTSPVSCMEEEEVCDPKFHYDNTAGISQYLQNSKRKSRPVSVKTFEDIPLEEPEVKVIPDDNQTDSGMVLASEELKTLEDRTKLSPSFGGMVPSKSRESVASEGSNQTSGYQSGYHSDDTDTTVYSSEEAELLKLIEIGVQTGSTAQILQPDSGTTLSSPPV
T5 sequence (Q96GD4 whole entry): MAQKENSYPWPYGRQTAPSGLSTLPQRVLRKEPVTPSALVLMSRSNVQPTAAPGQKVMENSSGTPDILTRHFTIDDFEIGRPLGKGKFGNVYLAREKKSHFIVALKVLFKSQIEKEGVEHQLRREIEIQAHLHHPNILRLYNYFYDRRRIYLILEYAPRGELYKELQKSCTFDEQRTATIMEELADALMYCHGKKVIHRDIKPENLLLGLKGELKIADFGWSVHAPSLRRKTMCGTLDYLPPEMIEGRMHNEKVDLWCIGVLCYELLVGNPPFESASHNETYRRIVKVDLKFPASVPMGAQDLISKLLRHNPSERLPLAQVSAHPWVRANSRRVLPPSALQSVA
T5 sequence (Q9NQS7 803-918 partner limits assumed): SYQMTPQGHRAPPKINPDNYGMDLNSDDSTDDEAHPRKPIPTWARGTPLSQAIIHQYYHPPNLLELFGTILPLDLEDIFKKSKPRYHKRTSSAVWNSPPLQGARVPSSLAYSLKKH

GI50 [1] [nM] | GI50 [2, 10] [nM] | GI50 [3] [nM] | GI50 [4] [nM] | IC50 [8] [nM] | SMILES | GI50 [2, 9] [nM] | IC50 [5] [nM] | IC50 [6] [nM] | IC50 [7] [nM]
59.4 | 0.7 | 18.4 | 3.9 | 21 | CC(C)(O)c1ccc(-c2cc(-c3cnc(N4C5CC6CC4CC(NC(=O)c4ncccc4Cl)(C6)C5)cn3)c3c(C#N)cnn3c2)nc1 [Example 18, 3-chloro-N-((1R,3S,5s,7s)-2-(5-(3-cyano-6-(5-(2-hydroxypropan-2-yl)pyridin-2-yl)pyrazolo[1,5-a]pyridin-4-yl)pyrazin-2-yl)-2-azaadamantan-5-yl)picolinamide] | 0.7 | 1.4 | 1170 | 
624 | 3.3 | 46.9 | 43.6 |  | COc1ccc(CN2C3CC2CN(c2ccc(-c4cc(OCC(C)(C)O)cn5ncc(C#N)c45)cn2)C3)cn1 [Loxo-292, reference compound] |  |  |  | 

SMILES | GI50 [1] [nM] | GI50 [2, 10] [nM] | GI50 [3] [nM] | GI50 [4] [nM] | IC50 [8] [nM] | GI50 [2, 9] [nM] | IC50 [5] [nM] | IC50 [6] [nM] | IC50 [7] [nM]
COc1ccc(CN2C3CC2CN(c2ccc(-c4cc(-c5ccc(C(C)(C)O)cn5)cn5ncc(C#N)c45)cn2)C3)cn1 [Example 9, 6-(5-(2-hydroxypropan-2-yl)pyridin-2-yl)-4-(6-(6-((6-methoxypyridin-3-yl)methyl)-3,6-diazabicyclo[3.1.1]heptan-3-yl)pyridin-3-yl)pyrazolo[1,5-a]pyridine-3-carbonitrile] | 54.6 | 0.6 | 13.2 | 4.8 |  | 0.6 | 0.58 | 1130 | 80

Reference: patent US20260184726A1, “HETEROCYCLIC COMPOUNDS AS KINASE INHIBITORS, COMPOSITIONS, AND METHODS OF USE THEREOF” (JS INNOMED HOLDINGS LTD., priority 2022, published 2026)
